Data on four molecules can be found in article PMC7426938, “Induction of mitochondria-mediated apoptosis and suppression of tumor growth in zebrafish xenograft model by cyclic dipeptides identified from Exiguobacterium acetylicum” (Scientific Reports, 2020).

The subject of data set [1] is zebrafish (ABiC) embryos. As to the kind of experiment: Zebrafish embryo developmental toxicity assay. In kind it is in vivo, zebrafish (Danio rerio). Conditions: for survival rate of embryos compared with untreated and DMSO treated embryos: 50, 100 and 150 μM, 96 hpf.
The test system of data set [2] is Cytc (Cytochrome-c) mRNA in HT-29 cells. In words: sqRT-PCR gene expression, Cytc. Conditions: 200 μM, 24 h, vs untreated cells. In kind it is cell-based, human. How it is done: (§1) Total RNA was isolated from HT-29 cells using the TRIzol reagent (TaKara, Japan) following the manufacturer’s instruction. The quantity and quality of each RNA sample were analyzed with a NanoDrop-1000 (Thermo Fisher Scientific, USA), followed by conversion to cDNA using RevertAid cDNA synthesis kit (Thermo Fisher Scientific, CA, USA) using 1 μg of mRNA to synthesize cDNA. Semi-quantitative reverse transcriptase-polymerase chain (sqRT-PCR) reaction was carried out in a Veriti Thermal Cycler (Applied Biosystems, CA, USA) using 2X Taq DNA polymerase Master Mix RED (Ampliqon, Denmark, Germany) as we previously described method. All sqRT-PCRs were run for at least three times. GAPDH served as a housekeeping gene to normalize the expression levels. The expression levels were analyzed by measuring the intensity of the band from the gel using Image-J software.

In data set [3] the test system is zebrafish (ABiC) embryos. As to the kind of experiment: Zebrafish embryo developmental toxicity assay. In kind it is in vivo, zebrafish (Danio rerio). More on the design: unit not given here. The method, then:
Laboratory animal care principles were followed and experimental procedures were conducted following guidelines established by the Institutional Animal Care, and Use Committee (IACUC), and every effort was made to minimize suffering. This study was approved by the IACUC of the Kaohsiung Medical University, Kaohsiung, Taiwan (Approval No: KMU-IACUC-105213). The wild-type (ABiC strain) zebrafish (Danio rerio) were maintained at 28 °C on a 14 h/10 h light/dark cycle under standard circulating water systems and fed with hatched brine shrimp. Embryos were obtained by natural mating male fish with female fish (2:3) in a water tank and eggs were maintained in a plastic Petri dish containing ad libitum water. After 4 h incubation, embryos were randomly divided into five experimental groups (control (without treatment), sham/vehicle control (DMSO), and three treatment groups for each cyclic dipeptide. Each group had 45 embryos per test dosage. All DKPs were tested at different doses varied from 50, 100 and 200 μM, respectively. After drug treatment, embryos were maintained in an incubator at 28 °C. The survival rate and embryonic developmental changes were observed by using an inverted microscope every 24 h interval for 96 h (Nikon Eclipse TE2000-U, Tokyo, Jap).

The test system of data set [4] is Casp-3 (Caspase-3) mRNA in HT-29 cells. As to the kind of experiment: sqRT-PCR gene expression, Casp-3. As to conditions: 200 μM, 24 h, vs untreated cells. In kind it is cell-based, human. The method, then:
as §1

Data set [5] relates to CM-Dil labelled HT-29 xenograft in zebrafish embryos. In words: Zebrafish HT-29 xenograft antitumor assay. The data set is classed as in vivo, zebrafish (Danio rerio). Set-up: inhibition of tumor growth: concentration or dose not given beside the values. As to conditions: for inhibition of tumor growth rate: 48 hpi; for inhibition of tumor growth rate / tumor growth reduction: 200 μM; for tumor growth reduction: 72 hpi; for inhibition of tumor growth: 24 hpi. The method, then:
For cell labelling, HT-29 cells were incubated with cell tracker CM-Dil (Invitrogen, Carlsbad, CA, USA) dye at a final volume was 20 µL/mL for 25 min at 37 °C. To remove the unstrained dye, cells were washed twice and re-suspended with 1X PBS, pH 7.4 to a final density of 2.1 × 10^6 cells/mL. Prior transplantation, CM-Dil labelled cells were assessed for viability using trypan blue exclusion assay. More than > 90% of viable cells were used. For xenotransplantation, 48-hours post-fertilization (hpf) wild-type ABiC embryos were anaesthetized in 0.01% tricaine methanesulfonate (Sigma-Aldrich; MS222) solution containing 0.3% phenylthiocarbamide (PTU; Sigma-Aldrich; P7629). After anesthetization, CM-Dil (a lipophilic fluorescent tracking dye) labelled HT-29 cells grafted into the yolk sac of each zebrafish embryos by using a microinjector IM-300 (Narishige, Tokyo, Japan). After injection, embryos were incubated for 1 h at 28 °C. For confirmation of the visible cell mass at the injection site, zebrafish were transferred to an incubator and maintained at 37 °C.
[…] CM-Dil labelled HT-29 xenograft zebrafish embryos were randomly selected and hosed into 4 replicate wells in 12-well cell culture plates (5 embryos/well; 20 embryos/treatment group; 20 × 4 = 80). The different doses (50, 100 and 200 μM) of all DKPs were treated with transplanted embryos. Before DKPs treatment, the initial fluorescence intensity of transplanted cancer cells was measured at 0 hour post-injection (hpi). At the end of experiment 24, 48, and 72 hpi, all embryos were selected from each well and were photographed under an inverted fluorescence microscope (Nikon Eclipse TE2000-U, Tokyo, Japan). The following acquisition parameters were employed over time: Image scaling: Low = 130; High = 2,900; Exposure Time = 100 ms and Binning = 1. The fluorescence intensity of the tumor in the embryos was measured and the percentage of tumor growth inhibition was calculated according to the following formula: Inhibitionrate(%)=Z(Negativecontrol)-Z(Treatment)/Z(Negativecontrol)×100%

SMILES strings stand for the structures.

In the case of `CC(C)C[C@@H]1NC(=O)[C@@H]2CCCN2C1=O` [DKP-1, cyclo (L-Pro-L-Leu)], the “survival rate of embryos compared with untreated and DMSO treated embryos” value with zebrafish (ABiC) embryos [1] was “no significant decrease”. For the same molecule, the “Cytc gene expression up-regulation” value in data set [2] turned out to be 2.32 fold. Further, the “Mean survival rate of zebrafish embryos” value in the data set on zebrafish (ABiC) embryos [3] (24 hpf, 50 μM) is reported as 70.88 ± 3.44; in the data set on zebrafish (ABiC) embryos [3] (24 hpf, 100 μM) it was 73.33 ± 5.96; in the data set on zebrafish (ABiC) embryos [3] (24 hpf, 200 μM) it was 75 ± 5.77; in the data set on zebrafish (ABiC) embryos [3] (48 hpf, 50 μM), 70.88 ± 5.96; with zebrafish (ABiC) embryos [3] (48 hpf, 100 μM) it was 71.11 ± 1.54; in the data set with zebrafish (ABiC) embryos [3] (48 hpf, 200 μM), 73.33 ± 3.32. In addition, the “Mean survival rate of zebrafish embryos” value in the data set with zebrafish (ABiC) embryos [3] (72 hpf, 50 μM) stood at 71.11 ± 3.44; in the data set with zebrafish (ABiC) embryos [3] (72 hpf, 100 μM), 71.11 ± 5.55; with zebrafish (ABiC) embryos [3] (72 hpf, 200 μM) it was 68.88 ± 6.91; in the data set with zebrafish (ABiC) embryos [3] (96 hpf, 50 μM), 66.66 ± 5.96; in the data set on zebrafish (ABiC) embryos [3] (96 hpf, 100 μM) it was 71.11 ± 9.10; with zebrafish (ABiC) embryos [3] (96 hpf, 200 μM), 66.66 ± 5.96. Besides, the “Casp-3 gene expression up-regulation” value in data set [4] was 2.32 fold. Besides, the “inhibition of tumor growth rate” value in data set [5] is on record as 57%. The same molecule showed a tumor growth reduction in data set [5] of 68%.
`CC(C)[C@@H]1NC(=O)[C@@H]2CCCN2C1=O` [DKP-2, cyclo (L-Pro-L-Val)]: the “survival rate of embryos compared with untreated and DMSO treated embryos” value with zebrafish (ABiC) embryos [1] was “no significant decrease”. For the same molecule, the “Cytc gene expression up-regulation” value in data set [2] was found to be 1.78 fold. Besides, the “Mean survival rate of zebrafish embryos” value with zebrafish (ABiC) embryos [3] (24 hpf, 50 μM) came out at 77.77 ± 5.41; with zebrafish (ABiC) embryos [3] (24 hpf, 100 μM), 82.22 ± 4.41; in the data set with zebrafish (ABiC) embryos [3] (24 hpf, 200 μM), 75.55 ± 3.44; in the data set with zebrafish (ABiC) embryos [3] (48 hpf, 50 μM), 80 ± 5.96; with zebrafish (ABiC) embryos [3] (48 hpf, 100 μM), 80 ± 5.96; with zebrafish (ABiC) embryos [3] (48 hpf, 200 μM) it was 75.55 ± 3.44. Further, the “Mean survival rate of zebrafish embryos” value in the data set with zebrafish (ABiC) embryos [3] (72 hpf, 50 μM) is given as 68.88 ± 3.44; with zebrafish (ABiC) embryos [3] (72 hpf, 100 μM), 77.33 ± 3.44; in the data set with zebrafish (ABiC) embryos [3] (72 hpf, 200 μM), 71.11 ± 6.88; with zebrafish (ABiC) embryos [3] (96 hpf, 50 μM), 66.66 ± 5.96; in the data set on zebrafish (ABiC) embryos [3] (96 hpf, 100 μM), 71.11 ± 9.10; in the data set on zebrafish (ABiC) embryos [3] (96 hpf, 200 μM) it was 66.66 ± 5.96. For the same molecule, the “Casp-3 gene expression up-regulation” value in data set [4] is listed as 1.31 fold. Further, the “inhibition of tumor growth” value in data set [5] is more than 30%. Further, the “inhibition of tumor growth rate” value in data set [5] stood at 58%. This molecule showed a tumor growth reduction in data set [5] of 78%.
With `O=C1N[C@@H](Cc2ccccc2)C(=O)N2CCC[C@@H]12` [DKP-3, cyclo (L-Pro-L-Phe)], the “survival rate of embryos compared with untreated embryos” value in the data set with zebrafish (ABiC) embryos [1] (lower doses (50 and 150 μM)) is “higher”. In addition, the “Cytc gene expression up-regulation” value in data set [2] is given as 4.29 fold. Besides, the “Mean survival rate of zebrafish embryos” value in the data set with zebrafish (ABiC) embryos [3] (24 hpf, 50 μM) came to 80 ± 5.96; with zebrafish (ABiC) embryos [3] (24 hpf, 100 μM), 80 ± 5.96; in the data set with zebrafish (ABiC) embryos [3] (24 hpf, 200 μM), 75.55 ± 4.12; with zebrafish (ABiC) embryos [3] (48 hpf, 50 μM), 80 ± 5.96; with zebrafish (ABiC) embryos [3] (48 hpf, 100 μM), 80 ± 5.96; with zebrafish (ABiC) embryos [3] (48 hpf, 200 μM), 75.55 ± 4.12. Moreover, the “Mean survival rate of zebrafish embryos” value in the data set with zebrafish (ABiC) embryos [3] (72 hpf, 50 μM) is reported as 77.77 ± 9.10; in the data set with zebrafish (ABiC) embryos [3] (72 hpf, 100 μM) it was 80 ± 5.96; with zebrafish (ABiC) embryos [3] (72 hpf, 200 μM), 73.33 ± 5.96; in the data set on zebrafish (ABiC) embryos [3] (96 hpf, 50 μM), 68.88 ± 6.88; with zebrafish (ABiC) embryos [3] (96 hpf, 100 μM), 80 ± 5.96; with zebrafish (ABiC) embryos [3] (96 hpf, 200 μM), 69.22 ± 12. Moreover, the “Casp-3 gene expression up-regulation” value in data set [4] is listed as 1.76 fold. For the same molecule, in data set [5], the “inhibition of tumor growth” value was more than 30%. Besides, the “inhibition of tumor growth rate” value in data set [5] came to 68%. Moreover, the tumor growth reduction in data set [5] came out at 81%. In addition, the “tumor growth inhibition rates compared to other peptides” value in data set [5] (all time intervals, different doses) was “highest tumor growth inhibition rates”.
Turning to `O=C1N[C@@H](Cc2ccc(O)cc2)C(=O)N2CCC[C@@H]12` [DKP-4, cyclo (L-Pro-L-Tyr)], in the data set with zebrafish (ABiC) embryos [1], the “survival rate of embryos compared with untreated and DMSO treated embryos” value is “no significant decrease”. Besides, in data set [2], the “Cytc gene expression up-regulation” value stood at 3.62 fold. The “Mean survival rate of zebrafish embryos” value is on record as 79 ± 3.96 with zebrafish (ABiC) embryos [3] (24 hpf, 50 μM); 82 ± 2.96 with zebrafish (ABiC) embryos [3] (24 hpf, 100 μM); 71.55 ± 5.12 in the data set with zebrafish (ABiC) embryos [3] (24 hpf, 200 μM); 79 ± 3.96 in the data set with zebrafish (ABiC) embryos [3] (48 hpf, 50 μM); 81 ± 2.96 with zebrafish (ABiC) embryos [3] (48 hpf, 100 μM); 70.34 ± 3.33 in the data set on zebrafish (ABiC) embryos [3] (48 hpf, 200 μM). The “Mean survival rate of zebrafish embryos” value in the data set with zebrafish (ABiC) embryos [3] (72 hpf, 50 μM) came to 75.51 ± 3.32; with zebrafish (ABiC) embryos [3] (72 hpf, 200 μM), 70.54 ± 3.51; in the data set with zebrafish (ABiC) embryos [3] (96 hpf, 50 μM) it was 71.11 ± 2.44; in the data set on zebrafish (ABiC) embryos [3] (96 hpf, 100 μM), 79.3 ± 2.77; in the data set on zebrafish (ABiC) embryos [3] (96 hpf, 200 μM), 68.24 ± 5.89. Besides, the “Casp-3 gene expression up-regulation” value in data set [4] worked out at 2.73 fold. In addition, the “inhibition of tumor growth” value in data set [5] was more than 30%. Moreover, the “inhibition of tumor growth rate” value in data set [5] stood at 60%. In data set [5], this molecule had a tumor growth reduction of 74%.
